Test results reported in PubChem BioAssay AID248 (DTP/NCI, 2004).
“And” between values parts separate entries of the source, which are not always exact repeats. Equal entries are not always repeated. Inconclusive results and toxic doses are left out. No stated cut-off is given here; in the data, active means T/C of 150% or more; inactive means T/C below 125%.

Test system: L1210 leukemia ip in BDF1 mice, survival T/C
Assay: NCI In Vivo Anticancer Drug Screen. Data for tumor model L1210 Leukemia (intraperitoneal) in B6D2F1 (BDF1) mice
Conditions: endpoint: mean survival time, higher = longer survival
Method in brief: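 In this screen, tumor-bearing mice given compound are compared to those given vehicle, and their survival values are reported as a treated-to-control quotient.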

[1] = dose: 100.0 mg/kg/injection, schedule: Q04DX003 (ip), vehicle: saline with Tween-80
[2] = dose: 200.0 mg/kg/injection, schedule: Q04DX003 (ip), vehicle: saline with Tween-80
[3] = dose: 400.0 mg/kg/injection, schedule: Q04DX003 (ip), vehicle: saline with Tween-80
[4] = dose: 100.0 mg/kg/injection, schedule: Q04DX003 (ip), vehicle: Klucel (hydroxypropylcellulose) (HPC)
[5] = dose: 200.0 mg/kg/injection, schedule: Q04DX003 (ip), vehicle: Klucel (hydroxypropylcellulose) (HPC)
[6] = dose: 400.0 mg/kg/injection, schedule: Q04DX003 (ip), vehicle: Klucel (hydroxypropylcellulose) (HPC)
[7] = dose: 100.0 mg/kg/injection, schedule: Q04DX002 (ip), vehicle: saline
[8] = dose: 200.0 mg/kg/injection, schedule: Q04DX002 (ip), vehicle: saline
[9] = dose: 400.0 mg/kg/injection, schedule: Q04DX002 (ip), vehicle: saline
[10] = dose: 100.0 mg/kg/injection, schedule: Q01DX009 (ip), vehicle: Klucel (hydroxypropylcellulose) (HPC)
[11] = dose: 200.0 mg/kg/injection, schedule: Q01DX009 (ip), vehicle: Klucel (hydroxypropylcellulose) (HPC)
[12] = dose: 100.0 mg/kg/injection, schedule: Q01DX009 (ip), vehicle: saline with Tween-80
[13] = dose: 200.0 mg/kg/injection, schedule: Q01DX009 (ip), vehicle: saline with Tween-80
[14] = dose: 100.0 mg/kg/injection, schedule: Q01DX009 (ip), vehicle: other
[15] = dose: 200.0 mg/kg/injection, schedule: Q01DX009 (ip), vehicle: other
[16] = dose: 400.0 mg/kg/injection, schedule: Q01DX009 (ip), vehicle: other
[17] = dose: 100.0 mg/kg/injection, schedule: Q01DX001 (ip), vehicle: Klucel (hydroxypropylcellulose) (HPC)
[18] = dose: 200.0 mg/kg/injection, schedule: Q01DX001 (ip), vehicle: Klucel (hydroxypropylcellulose) (HPC)
[19] = dose: 400.0 mg/kg/injection, schedule: Q01DX001 (ip), vehicle: Klucel (hydroxypropylcellulose) (HPC)
[20] = dose: 100.0 mg/kg/injection, schedule: Q01DX009 (ip), vehicle: saline
[21] = dose: 200.0 mg/kg/injection, schedule: Q01DX009 (ip), vehicle: saline
[22] = dose: 400.0 mg/kg/injection, schedule: Q01DX009 (ip), vehicle: saline
[23] = dose: 50.0 mg/kg/injection, schedule: Q01DX009 (ip), vehicle: saline with Tween-80

Measured: T/C

COC(=O)CCC(C(=O)CN1C(=O)c2ccccc2C1=O)N1C(=O)c2ccccc2C1=O (stereo not drawn)
inactive: [1] 96 % of control | [2] 92 % of control | [3] 92 % of control

c1ccc(C(c2ccccc2)(c2nccs2)n2ccnc2)cc1
inactive: [4] 95 % of control | [5] 98 % of control | [6] 104 % of control

C/C=C/C=C/COC(=O)CCCCCCC
inactive: dose: 25.0 mg/kg/injection, schedule: Q04DX002 (ip), vehicle: saline 107 % of control | dose: 50.0 mg/kg/injection, schedule: Q04DX002 (ip), vehicle: saline 103 % of control | [7] 103 % of control | [8] 110 % of control and 112 % of control | [9] 100 % of control

Clc1ccc(Br)c(Cl)c1
inactive: [10] 98 % of control | [4] 94 % of control | [11] 94 % of control | [5] 109 % of control | dose: 400.0 mg/kg/injection, schedule: Q01DX009 (ip), vehicle: Klucel (hydroxypropylcellulose) (HPC) 92 % of control | [6] 93 % of control

NC1CCCN(Cc2ccccc2)C1 (stereo not drawn)
inactive: dose: 75.0 mg/kg/injection, schedule: Q04DX003 (ip), vehicle: saline 104 % of control | dose: 150.0 mg/kg/injection, schedule: Q04DX003 (ip), vehicle: saline 100 % of control

Cc1cccc(/C(=C/c2ccc([N+](=O)[O-])cc2)C(=O)Nc2ccc(S(=O)(=O)F)cc2)c1
inactive: [12] 96 % of control | [13] 97 % of control | dose: 400.0 mg/kg/injection, schedule: Q01DX009 (ip), vehicle: saline with Tween-80 96 % of control

O=C(CCCCCC(=O)NO)NO
inactive: dose: 100.0 mg/kg/injection, schedule: Q04DX002 (ip), vehicle: saline with Tween-80 93 % of control | [7] 100 % of control | dose: 200.0 mg/kg/injection, schedule: Q04DX002 (ip), vehicle: saline with Tween-80 97 % of control | [8] 93 % of control | dose: 400.0 mg/kg/injection, schedule: Q04DX002 (ip), vehicle: saline with Tween-80 97 % of control | [9] 93 % of control

CC(Oc1ccccc1)C(=O)NC(=S)Nc1cc(Cl)ccc1Cl (stereo not drawn)
inactive: dose: 100.0 mg/kg/injection, schedule: Q01DX001 (ip), vehicle: other 93 % of control | [14] 94 % of control and 89 % of control | dose: 100.0 mg/kg/injection, schedule: Q04DX002 (ip), vehicle: other 119 % of control and 90 % of control | dose: 200.0 mg/kg/injection, schedule: Q01DX001 (ip), vehicle: other 88 % of control | [15] 96 % of control and 89 % of control | dose: 200.0 mg/kg/injection, schedule: Q04DX002 (ip), vehicle: other 94 % of control and 102 % of control | [16] 88 % of control | dose: 400.0 mg/kg/injection, schedule: Q04DX002 (ip), vehicle: other 102 % of control

COc1ccc(CC(C(=O)O)c2ccccc2C(=O)O)cc1OC (stereo not drawn)
inactive: dose: 100.0 mg/kg/injection, schedule: Q01DX001 (ip), vehicle: saline 101 % of control | dose: 200.0 mg/kg/injection, schedule: Q01DX001 (ip), vehicle: saline 97 % of control | dose: 400.0 mg/kg/injection, schedule: Q01DX001 (ip), vehicle: saline 97 % of control

CCN=C(c1ccc(NC(=O)c2ccc(C(=O)Nc3ccc(C(=NCC)N(CC)CC)cc3)cc2)cc1)N(CC)CC
inactive: dose: 0.94 mg/kg/injection, schedule: Q01DX Z (ip), vehicle: carboxymethylcellulose (CMC) 94 % of control | dose: 1.87 mg/kg/injection, schedule: Q01DX Z (ip), vehicle: carboxymethylcellulose (CMC) 95 % of control

O=C1CC2(CCN(Cc3ccccc3)CC2)C(=O)N1Nc1ccccc1
inactive: [17] 105 % of control | [18] 100 % of control | [19] 100 % of control

O=C(O)CCN1C(=O)CCC1=O
inactive: [20] 91 % of control | dose: 100.0 mg/kg/injection, schedule: Q04DX003 (ip), vehicle: saline sonified 105 % of control | [21] 94 % of control | dose: 200.0 mg/kg/injection, schedule: Q04DX003 (ip), vehicle: saline sonified 92 % of control | [22] 105 % of control | dose: 400.0 mg/kg/injection, schedule: Q04DX003 (ip), vehicle: saline sonified 95 % of control

Nc1nc2nc(N=Nc3ccc(N=Nc4nc5nc(N)[nH]c(=O)c5[nH]4)cc3)[nH]c2c(=O)[nH]1
inactive: [4] 91 % of control | [5] 99 % of control | [6] 88 % of control

Fc1ccc(P(c2ccc(F)cc2)c2ccc(F)cc2)cc1
inactive: dose: 25.0 mg/kg/injection, schedule: Q01DX009 (ip), vehicle: Klucel (hydroxypropylcellulose) (HPC) 97 % of control | dose: 50.0 mg/kg/injection, schedule: Q01DX009 (ip), vehicle: Klucel (hydroxypropylcellulose) (HPC) 89 % of control | [4] 103 % of control

Nc1c(Cl)cc(Cl)c(-c2c(Cl)cc(Cl)c([N+](=O)[O-])c2Cl)c1Cl
inactive: [17] 106 % of control | [18] 101 % of control | [19] 95 % of control

CCOC(=O)C(Br)(C(=O)OCC)C(C)C
inactive: [20] 101 % of control | [21] 95 % of control | [22] 100 % of control

Cc1cc2nc(/C(C#N)=C/c3cc(Cl)cc(Cl)c3O)[nH]c2cc1C
inactive: [14] 93 % of control | [15] 104 % of control | [16] 93 % of control

CCC1=C(C)C(=O)Nc2c3ncnc-3ncn2C1O (stereo not drawn)
inactive: dose: 100.0 mg/kg/injection, schedule: Q01DX001 (ip), vehicle: saline with Tween-80 100 % of control | dose: 200.0 mg/kg/injection, schedule: Q01DX001 (ip), vehicle: saline with Tween-80 105 % of control | dose: 400.0 mg/kg/injection, schedule: Q01DX001 (ip), vehicle: saline with Tween-80 103 % of control

O=C1CCC(c2ccc3c(c2)CCCC3)O1 (stereo not drawn)
inactive: [23] 97 % of control | [12] 95 % of control | [1] 105 % of control | [13] 90 % of control | [2] 105 % of control | [3] 95 % of control

CC(=O)OCC(C)(C)COS(=O)(=O)c1ccc(Br)cc1
inactive: [23] 100 % of control | [12] 89 % of control | [13] 89 % of control

Cc1ccccc1C(C)C
inactive: [1] 94 % of control | [2] 98 % of control | [3] 91 % of control

CCCCCCCCCCCCC1CC(=O)OC1=O (stereo not drawn)
inactive: [10] 97 % of control | [4] 93 % of control | [11] 95 % of control | [5] 91 % of control

CCC1=C(c2ccccc2)OS(=O)(=O)NC1=O
inactive: dose: 100.0 mg/kg/injection, schedule: Q04DX003 (ip), vehicle: saline 97 % of control | dose: 200.0 mg/kg/injection, schedule: Q04DX003 (ip), vehicle: saline 97 % of control | dose: 400.0 mg/kg/injection, schedule: Q04DX003 (ip), vehicle: saline 109 % of control

CN(C)c1ccc(C=NCCN=Cc2ccc(N(C)C)cc2)cc1
inactive: [1] 98 % of control | [2] 106 % of control | [3] 95 % of control

NC(=S)N=Nc1c(O)n2c3c(cccc13)CCc1ccccc1-2
inactive: [1] 92 % of control | [2] 96 % of control | [3] 94 % of control
